Here are results for 1 substance from US6429191B1, “Treatment of hearing impairments” (Genentech, Inc., priority 1996, dated 2002).

The target in one assay is trkB receptor (Homo sapiens, UniProt Q16620). Conditions: naturally occurring NGF vs BDNF; cited from earlier work.
The subject of assay [1] is spiral ganglion neurons (SGNs). The assay can be described thus: Neurotrophin protection of dissociated SGNs against cisplatin neurotoxicity. Conditions: 10 ng/ml neurotrophin, cisplatin 1, 2 or 4 μg/ml. It is filed as cell-based, rat. An excerpt: Quantitation of viable SGNs was done in the same way as in FIG. 1. The error bars stand for SEM. […] While no difference was found between cultures containing NT-4/5 and cultures containing BDNF, the difference between cultures containing NT-3 and cultures containing NT-4/5 or BDNF was statistically very significant (P<0.001).

Assay [2] relates to SGNs in cochlear explants. The assay can be described thus: Protective effects in cochlear explant cultures co-treated with ototoxins, SGN peripheral axon count. Type of assay: cell-based, rat. Conditions: 20 ng/ml neurotrophin; sodium salicylate 5 mM or gentamicin 3 mM. On the procedure:
FIGS. 9A and 9B depict quantitation of protective effects of NT-4/5 on SGNs (FIG. 9A) and hair cells (FIG. 9B). […] The same experimental procedures were performed as in FIGS. 6A and 6B. The error bars are SEM and ** indicate that as compared to the cultures containing an ototoxin alone, p<0.001. “Con” indicates control culture.
FIG. 10 depicts quantitation of neuroprotection of different neurotrophins against sodium salicylate (Sal) and gentamicin (Gent). […] Sodium salicylate (5 mM) or gentamicin (3 mM) was added either alone or in combination with one of the neurotrophins (20 ng/ml) to 2-day cultures and the cultures were kept for 2 more days. The same experimental procedures were performed as in FIGS. 6A and 6B. […] The error bars are SEM and ** indicate that as compared to the cultures containing an ototoxin alone, p<0.001.
The protective effect of neurotrophins against ototoxicity was determined in the organotypic cultures of postnatal cochlear explants described in the Examples above. […] A human recombinant neurotrophin (Genentech, Inc.) or other growth factors, alone or in combination, was added to the culture at the same time the ototoxin was added.
Two days after treatment with ototoxins or co-treatment with ototoxins and neurotrophins (or other growth factors), the cochlear explant cultures were fixed in 4% paraformaldehyde in 0.1 M phosphate buffer (pH 7.4) for 30 min, washed in PBS, and subjected to double histochemical staining of the cochlear explant cultures. After incubation with the monoclonal antibody N52 against neurofilament protein (200 kd) in 1% Triton X100 containing 3% normal goat serum (“NGS”) for 2 days at 4° C., the explants were incubated with a Texas red-conjugated goat anti-mouse secondary antibody (1:70; Cappel) at room temperature for 40 min. The preparations were then stained with FITC-conjugated phalloidin (0.5 μg/ml; Sigma) for 45 min, washed in PBS and mounted in Fluoromount-G (Southern Biotechnology Associates, Birmingham, Ala.) which contains an anti-fading agent.

Another assay deals with trkC receptor (Homo sapiens, UniProt Q16288). Conditions: naturally occurring NGF vs NT-3; cited from earlier work.
For assay [3], the system named is spiral ganglion neurons (SGNs). The assay can be described thus: Survival of dissociated spiral ganglion neurons in serum-free culture. It is filed as cell-based, rat. The conditions noted are these: P5 rat SGNs, 2 days, serum-free medium; neurotrophins 0.1-50 ng/ml. On the procedure: FIG. 1 is a histogram depicting the effects of NT-4/5 on SGN survival. SGNs were prepared from P5 rats, plated and kept for 2 days in serum-free medium in the absence or presence of NT-4/5 at different concentrations. Viable SGNs were identified by labeling with a neurofilament monoclonal antibody (N52), viewed under a Zeiss Axiophot microscope, and counted using a grid ocular reticule covering an area of […]. For each culture, about 10 randomly selected fields were counted. Data were collected from 3 to 5 cultures and normalized as a percentage of the number of viable neurons in the control cultures in each of the experiments. The error bars represent SEM.
FIG. 2 is a histogram depicting the effects of different neurotrophins on SGN survival. SGNs were prepared from P5 rats and maintained for 2 days in serum-free medium without or with different neurotrophins at different concentrations. Quantitation of viable SGNs was made in the same way as in FIG. 1 and the error bars are SEM. […] Difference between NT-3 and NT-4/5 or BDNF was very significant at all doses (P<0.001). No statistical difference was found between NT-4/5 and BDNF except the dose of 0.1 ng/ml (P<0.01).
Identical results (not shown) were also obtained with a different neuronal marker, a monoclonal antibody 3A10 (Furley et al., 1990). SGNs were dissociated from postnatal day 5 (P5) rat cochleae and plated in defined serum-free medium. […] The enzyme was inactivated with a mixture of 0.005% soybean trypsin inhibitor (Sigma) and 0.005% DNase (Worthington) before trituration with 0.05% DNase in Eagle's Basal Medium (“BME”). The dissociated cells were preplated on a 35 mm untreated tissue culture dish for 25 min to enrich the neuronal population. Under these experimental procedures, about 10% of the cell population were spiral ganglion neurons (“SGNs”) as determined by immunocytochemistry with a monoclonal antibody (N52; Boehringer) against neurofilaments (200 kd; Boehringer). […] Cells were plated at a density of 80,000/well. In control cultures about 75% of SGNs died after 2 days, presumably due to a lack of growth factors.

Chain of trkC receptor (Q16288 32-839): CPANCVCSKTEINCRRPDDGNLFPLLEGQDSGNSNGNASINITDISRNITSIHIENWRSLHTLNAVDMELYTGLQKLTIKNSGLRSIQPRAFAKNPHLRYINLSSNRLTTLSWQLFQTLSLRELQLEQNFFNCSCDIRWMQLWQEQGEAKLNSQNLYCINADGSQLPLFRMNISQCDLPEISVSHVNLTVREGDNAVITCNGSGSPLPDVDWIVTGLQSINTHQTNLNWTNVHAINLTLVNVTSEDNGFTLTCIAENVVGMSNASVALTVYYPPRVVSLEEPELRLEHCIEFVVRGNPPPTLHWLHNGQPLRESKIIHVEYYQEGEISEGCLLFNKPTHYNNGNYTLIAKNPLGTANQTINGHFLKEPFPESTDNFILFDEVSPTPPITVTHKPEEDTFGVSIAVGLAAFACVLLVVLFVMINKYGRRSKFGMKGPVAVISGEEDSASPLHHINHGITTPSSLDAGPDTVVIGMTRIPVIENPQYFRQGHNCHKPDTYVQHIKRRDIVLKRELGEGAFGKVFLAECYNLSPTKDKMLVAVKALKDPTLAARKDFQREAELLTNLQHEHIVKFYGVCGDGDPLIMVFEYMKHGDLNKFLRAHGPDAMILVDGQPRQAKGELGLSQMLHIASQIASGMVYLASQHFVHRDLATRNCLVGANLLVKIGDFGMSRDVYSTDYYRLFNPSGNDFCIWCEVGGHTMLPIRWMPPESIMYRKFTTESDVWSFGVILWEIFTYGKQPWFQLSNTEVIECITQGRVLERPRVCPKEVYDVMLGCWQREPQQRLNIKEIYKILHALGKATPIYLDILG
Chain of trkB receptor (Q16620 32-822): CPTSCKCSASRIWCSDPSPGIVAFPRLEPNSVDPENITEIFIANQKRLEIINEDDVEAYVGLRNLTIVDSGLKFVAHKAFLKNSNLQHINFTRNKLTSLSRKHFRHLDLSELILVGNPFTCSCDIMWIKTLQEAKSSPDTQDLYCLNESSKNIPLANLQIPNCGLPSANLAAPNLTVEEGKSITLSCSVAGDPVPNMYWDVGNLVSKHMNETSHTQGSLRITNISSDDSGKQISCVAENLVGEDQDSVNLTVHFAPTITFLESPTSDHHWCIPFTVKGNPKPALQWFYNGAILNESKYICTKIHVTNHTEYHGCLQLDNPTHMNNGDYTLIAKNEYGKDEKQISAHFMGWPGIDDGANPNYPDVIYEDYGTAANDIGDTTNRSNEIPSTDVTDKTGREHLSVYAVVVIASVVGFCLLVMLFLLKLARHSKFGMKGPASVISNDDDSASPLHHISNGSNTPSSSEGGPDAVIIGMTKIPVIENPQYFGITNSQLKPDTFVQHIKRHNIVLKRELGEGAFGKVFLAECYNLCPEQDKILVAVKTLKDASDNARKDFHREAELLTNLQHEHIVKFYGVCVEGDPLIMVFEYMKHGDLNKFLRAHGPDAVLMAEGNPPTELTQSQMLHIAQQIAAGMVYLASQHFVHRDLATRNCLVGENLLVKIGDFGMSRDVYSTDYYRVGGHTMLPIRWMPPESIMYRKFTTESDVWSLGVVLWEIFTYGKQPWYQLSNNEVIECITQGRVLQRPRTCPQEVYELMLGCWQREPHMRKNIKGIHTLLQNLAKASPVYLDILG

As for nerve growth factor [NGF], in the assay with trkB receptor, the “KD at trkB relative to BDNF (fold lower)” value was 500-1000 fold. Besides, in assay [1], the “protective effects against cisplatin neurotoxicity” value was “did not show any protective effects”. The “neuroprotection of SGNs against sodium salicylate and gentamicin” value in assay [2] is given as “did not show any detectable protection”. The “KD at trkC relative to NT-3 (fold lower)” value with trkC receptor was 500-1000 fold. Also, the “survival-promoting effect on SGNs” value in assay [3] is “no detectable effects”.
